Columns and labels:
G361 cells = assay: Matrigel-invasion assay, G361 cells; format: cell-based; conditions: γ-T3 at IC50 and IC85
Method: (§1) 1.1.4 Matrigel-invasion assay—Matrigel-invasion assay was performed according to a previously published method with modifications. Briefly, cells were pre-incubated in a serum-free RPMI 1640 medium with or without γ-T3 isomers for 24 hrs. Cells (2.5×10^5) resuspended in 500 μl of serum-free RPMI 1640 containing 0.1% bovine serum albumin (BSA) were then added to the upper chamber of a 8 μm pore size insert (Millipore, Bedford, Mass.) manually coated with Matrigel (0.5 mg/ml) (BD Bioscience, Bedford, Mass.). Five hundred μl of invasion buffer containing fibronectin (10 μg/ml) and RPMI 1640 supplemented with 10% FCS were added in the lower chamber as a chemo-attractant. Cells were incubated at 37° C. for 24 hrs in 5% CO2 humidified conditions. At the end of incubation period, inserts were stained with Diff-Quick staining solution (Fischer Scientific). Non-invaded cells on the inside of the insert were scraped off with a cotton swab. Cell invasions were then examined by a phase-contrast microscope. The invaded cells were extracted using extraction buffer (Millipore, Bedford, Mass.) and the cell number was estimated based on absorbance at 595 nm.

PC-3 cells [1] = assay: Matrigel-invasion assay, PC-3 cells; format: cell-based, human; conditions: γ-T3 at IC50, 24 hrs
Method: as §1
2.1.4 Flow cytometry was carried out as described above under item 1.1.3. Matrigel-invasion assay was carried out as described above under item 1.1.4. Western blotting was carried out as described above under item 1.1.5.

[2] = system: PC-3-Luc prostate cancer xenograft; assay: PC-3-Luc prostate cancer xenograft model; format: in vivo, BALB/c athymic nude mice; conditions: γ-T3 50 mg/kg/day, Docetaxel 7.5 mg/kg/week; by day 14th after start of treatment; control 620±10
Method: 4.1.3 Establishment of the PC-3 prostate cancer xenograft model—Bioluminescent PC-3-Luc human prostate cancer cell line were generated according to known methods. Briefly, cDNA encoding the luciferase gene was cloned into the pLenti-6/V5. The construct was co-transfected with the packaging mix into HEK293 and lentivirus were collected and used for infecting PC-3 cells. Transfectants were obtained as a pool (PC-3-Luc) by selection with 10 μg/mL of Blasticidine for 1 week. The animal experimental protocol was approved by NACLAR (National Advisory Committee for Laboratory Animal Research) Guideline of Singapore for proper and humane use of animals. Male BALB/c athymic nude mice (4-5 weeks old, 18-22 g) were purchased from The Jackson Laboratory (Bar Harbor, Me., USA). […]
Nude mice bearing similar tumor sizes of about 100 mm^3 (after 2 weeks inoculation) were selected and randomly divided into three groups (n=5 per group); control (DMSO as vehicle), γ-T3 (50 mg/kg/d) and combination treatment of γ-T3 and Docetaxel (50 mg of γ-T3/kg/d and 7.5 mg of Docetaxel/kg/wk). The mice were weighed as daily basic and the tumors were measured using a Digital Carbon Fiber Caliper (Fisher scientific, Pittsburgh, Pa.) at the same time. The tumor volume was calculated as 4/3*π*(mean diameter/2)^3. […]

[3] = system: bladder cancer cell line MGH-U1; assay: Spheroid formation assay, MGH-U1 cells; format: cell-based
Method: 5.1.7 Spheroid formation assay—Spheroid formation assay was performed with a protocol modified from previous study (Folkins C, p3560). Briefly, cells were first trypsinized, washed with 1× PBS and resuspended in DMEM F12 medium. Two hundred cells were added into each well of a 24-well-plate pre-coated with polyHEMA (Sigma, St. Louis, Mo.). Cells will be grown in DMEM/F12 mem (Invitrogen, Carlsbad, Calif.) supplemented with 4 μg/mL insulin (Sigma, St. Louis, Mo.), B27 (Invitrogen, Carlsbad, Calif.), 20 ng/mL EGF (Sigma, St. Louis, Mo.), and 20 ng/mL basic FGF (Invitrogen, Carlsbad, Calif.). Fresh medium with the above supplements was added every day. γ-T3 was added at indicated time points and the number of spheroids was counted at day 14 of the assay or at the end of the treatment. Each experiment was repeated in triplicates and each data point represented the mean and standard derivation.

PC-3 cells [4] = assay: Low-dose viability (MTT) and apoptotic markers, PC-3 cells; format: cell-based; conditions: 2.5 and 5 μg/ml
Method: 5.1.4 Cell viability assay—Cell viability upon γ-T3 treatment was measured by 3-(4,5-Dimethyl thiazol-2-yl)-2,5-diphenyl tetrazolium bromide (MTT) assay. Briefly, cells were seeded on 96 well-plates and treated with different concentrations of γ-T3 for the indicated time point. At the end of the treatment, MTT (Sigma, St. Louis, Mo.) was added into each well and incubated for 4 hrs at RT. DMSO was then added into each well to dissolve the formazan crystals. The plate was allowed to incubate for a further 5 min at RT and the optical density (OD) was measured at a wavelength of 570 nm on a Labsystem multiskan microplate reader (Merck Eurolab, Dietikon, Schweiz). All individual wells were set in triplicates. The percentage of cell viability was presented as OD ratio between the treated and untreated cells at indicated concentrations.
5.1.5 Western blotting was carried out as described above under 1.1.5. The membrane was incubated with primary antibodies directed against CD133 (Miltenyi Biotec, Auburn, Calif.), Bcl-2, PARP, cleaved caspase 3, 7, 9 (Cell Signaling, Technology Inc, Beverly, Mass.), CD44 and β-actin (Santa Cruz Biotechnology, Santa Cruz, Calif.). After washing with TBS-T, the membrane was incubated with secondary antibody against either mouse or rabbit IgG and the signals were visualized using ECL plus western blotting system (Amersham, Piscataway, N.J.).

`CC(C)=CCC/C(C)=C/CC/C(C)=C/CCC1(C)CCc2cc(O)c(C)c(C)c2O1` (centres unmarked) [γ-T3, 7,8-dimethyltocotrienol] was tested, and the “invasion capability compared to untreated control” value (G361 cells) was 2 -time lower, the “invasion capability compared to untreated control” value (PC-3 cells [1]) was “at least 2.5 -time lower” and the tumor volume [2] was 300±48 mm^3. The “inhibition in spheroid formation” value [3] was 100% and the “induction of apoptosis (viability assay and apoptotic markers)” value (PC-3 cells [4]) was “failed to detect a drastic induction of apoptosis”.
